{
  "source": "patent US4317768A",
  "about": "“Dihydropyridine derivatives as stabilizers for vinyl chloride polymers” (priority 1977, dated 1982)",
  "key": {"[1]": {"test": "Comparison with 1,4-butanediol-β-aminocrotonate and methyl-β-aminocrotonate, rigid co-polymer, 185° C.", "settings": "0.5 part", "experimental": "(a) Comparison with 1,4-butanediol-β-aminocrotonate and with methyl-β-aminocrotonate.\nThe following rigid co-polymer was prepared:\nThe sheets were heated in a ventilated oven at 185° C. and the following results were obtained: […]"}, "[2]": {"test": "Thermostability, rigid co-polymer (d), ventilated oven 210° C.", "settings": "0.3 part", "experimental": "(§1) The study of the static thermostability of vinyl co-polymers was carried out according to the GARDNER method described above and, also in a more detailed manner in British Patent No. 1,489,685.\n(d) Rigid co-polymer vinyl chloride-vinylidene chloride\n(§2) The following compound was prepared:\nThe sheets were heated in a ventilated oven at 210° C."}, "[3]": {"test": "Comparison with stabilizer G1, 0.3 part, 185° C."}, "[4]": {"test": "Colour of the resin after each passage in a blower-extruder", "settings": "blower-extruder", "experimental": "(2) Examination of the colour of the resin after each passage (3 in all) in a blower-extruder, the mould being a 250 ml cylindrical flask.\nFour resins where tested, the first containing 0.2% of 2-phenyl-indole and the others 0.2%, 0.03% and 0.015% of compound 1 respectively."}, "[5]": {"test": "Comparison with stabilizer G1, rigid co-polymer (12.5 to 13.5% of acetate), 0.5 part, 185° C.", "description": "Another comparison was made with the following rigid co-polymer: […]"}, "[6]": {"test": "Stabilization of plastified vinyl resins (pressed plates)", "settings": "plastified resin", "experimental": "This study was carried out by pressing plates from sheets which had been mixed for 5 minutes at 180° C., the pressing also lasting 5 minutes but at 170° C.\nThe same parameters as hereabove were studied, namely the duration of the stability of the colour, the duration of the thermostability and the colour of the pressed plate."}, "[7]": {"test": "Comparison with stabilizer G1, rigid co-polymer, 0.5 part, 185° C.", "description": "(b) Comparison with stabilizer G1\nStabilizer G1 is a mixture of 1,4-butanediol-β-aminocrotonate and of β-aminocrotonate of alcohols containing from 16 to 18 carbon atoms."}, "[8]": {"test": "Thermostability, rigid co-polymer (e), ventilated oven 210° C.", "settings": "0.3 part", "experimental": "as §1\n(e) Rigid co-polymer vinyl chloride-vinylidene chloride\nas §2\nThe sheets were heated in a ventilated oven at 210° C. and the following results were obtained: […]"}, "[9]": {"test": "Antioxidant power on a polyvinyl chloride resin, GARDNER method, 185° C.", "experimental": "By direct comparison, on a polyvinyl chloride resin, of the antioxidant power of Compound 1 of the invention and that of an antioxidant known as one of the most valuable and frequently used in polyvinyl chloride, namely 2,6-diterbutyl-4-methyl-phenol.\nThe antioxidant power of Compound 1 was compared to that of 2,6-diterbutyl-4-methyl-phenol (Compound 2) by using the following resin:\nThe study was carried out according to the GARDNER method, the samples being removed from an oven at 185° C. every 10 minutes over a period of 80 minutes.\nThe signs + and - have the same meanings as in the previous table and > 2 means that the coloration lies between 2 and 2+."}},
  "note": "Entries after “also recorded” stand apart in the source; their conditions may differ.",
  "data": [
    {"molecule": "CC1=C(C(=O)OCc2ccccc2)CC(C(=O)OCc2ccccc2)=C(C)N1", "note": "[Compound 21, 2,6-Dimethyl-3,5-dicarbobenzyloxy-1,4-dihydropyridine]", "values": [
      {"measurement": "coloration, GARDNER scale", "setting": "[1]; 0 min", "value": 1},
      {"measurement": "coloration, GARDNER scale", "setting": "[1]; 2 min", "value": 1},
      {"measurement": "coloration, GARDNER scale", "setting": "[1]; 4 min", "value": 4},
      {"measurement": "coloration, GARDNER scale", "setting": "[1]; 6 min", "value": 6},
      {"measurement": "coloration, GARDNER scale", "setting": "[1]; 8 min", "value": 11},
      {"measurement": "coloration, GARDNER scale", "setting": "[1]; 10 min", "value": 13},
      {"measurement": "coloration, GARDNER scale", "setting": "[1]; 12 min", "value": 17},
      {"measurement": "coloration, GARDNER scale", "setting": "[2]; 0 min", "value": 1.5},
      {"measurement": "coloration, GARDNER scale", "setting": "[2]; 3 min", "value": 2},
      {"measurement": "coloration, GARDNER scale", "setting": "[2]; 6 min", "value": 2},
      {"measurement": "coloration, GARDNER scale", "setting": "[2]; 9 min", "value": 3},
      {"measurement": "coloration, GARDNER scale", "setting": "[2]; 12 min", "value": 7},
      {"measurement": "coloration, GARDNER scale", "setting": "[2]; 15 min", "value": 15},
      {"measurement": "coloration, GARDNER scale", "setting": "[3]; 0 min", "value": 1},
      {"measurement": "coloration, GARDNER scale", "setting": "[3]; 2 min", "value": 1},
      {"measurement": "coloration, GARDNER scale", "setting": "[3]; 4 min", "value": 2},
      {"measurement": "coloration, GARDNER scale", "setting": "[3]; 6 min", "value": 4},
      {"measurement": "coloration, GARDNER scale", "setting": "[3]; 8 min", "value": 7},
      {"measurement": "coloration, GARDNER scale", "setting": "[3]; 10 min", "value": 12},
      {"measurement": "coloration, GARDNER scale", "setting": "[3]; 12 min", "value": 16},
      {"measurement": "coloration, GARDNER scale", "setting": "[3]; 14 min", "value": 18}
    ]},
    {"molecule": "C=CCOC(=O)C1=C(C)NC(C)=C(C(=O)OCC=C)C1", "note": "[Compound 1, 2,6-Dimethyl-3,5-dicarboallyloxy-1,4-dihydropyridine]", "values": [
      {"measurement": "stability of colour compared to 2-phenyl-indole, in words", "setting": "[4]", "value": "markedly superior; also recorded: at all times superior to 2-phenyl-indole used at a concentration of 0.2%"},
      {"measurement": "stability of colour compared to 2-phenyl-indole, in words", "setting": "[4]; listed as compound 1", "value": "excellent behaviour"},
      {"measurement": "coloration, GARDNER scale", "setting": "[5]; 0 min", "value": 1},
      {"measurement": "coloration, GARDNER scale", "setting": "[5]; 2 min", "value": 1},
      {"measurement": "coloration, GARDNER scale", "setting": "[5]; 4 min", "value": 2},
      {"measurement": "coloration, GARDNER scale", "setting": "[5]; 6 min", "value": 3},
      {"measurement": "coloration, GARDNER scale", "setting": "[5]; 10 min", "value": 12},
      {"measurement": "coloration, GARDNER scale", "setting": "[5]; 12 min", "value": 18},
      {"measurement": "coloration, GARDNER scale", "setting": "[5]; column without printed time, between 6 and 10 min", "value": 7},
      {"measurement": "influence on stability / basic colour of the plate, in words", "setting": "[6]", "value": "favourable influence on the stability of the plate; also recorded: favourable influence on the basic colour"},
      {"measurement": "coloration, GARDNER scale", "setting": "[7]; 0 min", "value": 1},
      {"measurement": "coloration, GARDNER scale", "setting": "[7]; 2 min", "value": 1},
      {"measurement": "coloration, GARDNER scale", "setting": "[7]; 4 min", "value": 2},
      {"measurement": "coloration, GARDNER scale", "setting": "[7]; 6 min", "value": 6},
      {"measurement": "coloration, GARDNER scale", "setting": "[7]; 8 min", "value": 10},
      {"measurement": "coloration, GARDNER scale", "setting": "[7]; 10 min", "value": 13},
      {"measurement": "coloration, GARDNER scale", "setting": "[7]; 12 min", "value": 17},
      {"measurement": "coloration, GARDNER scale", "setting": "[8]; 0 min", "value": 1},
      {"measurement": "coloration, GARDNER scale", "setting": "[8]; 3 min", "value": 1},
      {"measurement": "coloration, GARDNER scale", "setting": "[8]; 6 min", "value": 2},
      {"measurement": "coloration, GARDNER scale", "setting": "[8]; 9 min", "value": 4},
      {"measurement": "coloration, GARDNER scale", "setting": "[8]; 12 min", "value": 10},
      {"measurement": "coloration, GARDNER scale", "setting": "[9]; 0.05 part, 0 min", "value": 1},
      {"measurement": "coloration, GARDNER scale", "setting": "[9]; 0.05 part, 10 min", "value": 1},
      {"measurement": "coloration, GARDNER scale", "setting": "[9]; 0.05 part, 60 min", "value": 7},
      {"measurement": "coloration, GARDNER scale", "setting": "[9]; 0.05 part, 70 min", "value": 8},
      {"measurement": "coloration, GARDNER scale", "setting": "[9]; 0.1 part, 0 min", "value": 1},
      {"measurement": "coloration, GARDNER scale", "setting": "[9]; 0.1 part, 10 min", "value": 1},
      {"measurement": "coloration, GARDNER scale", "setting": "[9]; 0.1 part, 30 min", "value": "< 2"},
      {"measurement": "coloration, GARDNER scale", "setting": "[9]; 0.1 part, 60 min", "value": 7},
      {"measurement": "coloration, GARDNER scale", "setting": "[9]; 0.1 part, 70 min", "value": 7},
      {"measurement": "coloration, GARDNER scale", "setting": "[9]; 0.2 part, 0 min", "value": 1},
      {"measurement": "coloration, GARDNER scale", "setting": "[9]; 0.2 part, 10 min", "value": 1},
      {"measurement": "coloration, GARDNER scale", "setting": "[9]; 0.2 part, 20 min", "value": 1},
      {"measurement": "coloration, GARDNER scale", "setting": "[9]; 0.2 part, 40 min", "value": 2},
      {"measurement": "coloration, GARDNER scale", "setting": "[9]; 0.2 part, 50 min", "value": 3},
      {"measurement": "coloration, GARDNER scale", "setting": "[9]; 0.2 part, 60 min", "value": 5},
      {"measurement": "coloration, GARDNER scale", "setting": "[9]; 0.2 part, 70 min", "value": "> 6"},
      {"measurement": "coloration, GARDNER scale", "setting": "[9]; 0.3 part, 0 min", "value": 1},
      {"measurement": "coloration, GARDNER scale", "setting": "[9]; 0.3 part, 10 min", "value": 1},
      {"measurement": "coloration, GARDNER scale", "setting": "[9]; 0.3 part, 20 min", "value": 1},
      {"measurement": "coloration, GARDNER scale", "setting": "[9]; 0.3 part, 30 min", "value": 1},
      {"measurement": "coloration, GARDNER scale", "setting": "[9]; 0.3 part, 40 min", "value": 2},
      {"measurement": "coloration, GARDNER scale", "setting": "[9]; 0.3 part, 50 min", "value": "> 2"},
      {"measurement": "coloration, GARDNER scale", "setting": "[9]; 0.3 part, 60 min", "value": 8},
      {"measurement": "coloration, GARDNER scale", "setting": "[9]; 0.3 part, 70 min", "value": 8},
      {"measurement": "coloration, GARDNER scale", "setting": "[9]; 0.4 part, 0 min", "value": 1},
      {"measurement": "coloration, GARDNER scale", "setting": "[9]; 0.4 part, 10 min", "value": 1},
      {"measurement": "coloration, GARDNER scale", "setting": "[9]; 0.4 part, 20 min", "value": 1},
      {"measurement": "coloration, GARDNER scale", "setting": "[9]; 0.4 part, 30 min", "value": 1},
      {"measurement": "coloration, GARDNER scale", "setting": "[9]; 0.4 part, 60 min", "value": 4},
      {"measurement": "coloration, GARDNER scale", "setting": "[9]; 0.4 part, 70 min", "value": 8},
      {"measurement": "coloration, GARDNER scale", "setting": "[9]; 0.5 part, 0 min", "value": 1},
      {"measurement": "coloration, GARDNER scale", "setting": "[9]; 0.5 part, 10 min", "value": 1},
      {"measurement": "coloration, GARDNER scale", "setting": "[9]; 0.5 part, 20 min", "value": 1},
      {"measurement": "coloration, GARDNER scale", "setting": "[9]; 0.5 part, 30 min", "value": "> 1"},
      {"measurement": "coloration, GARDNER scale", "setting": "[9]; 1.0 part, 0 min", "value": 1},
      {"measurement": "coloration, GARDNER scale", "setting": "[9]; 1.0 part, 10 min", "value": 1},
      {"measurement": "coloration, GARDNER scale", "setting": "[9]; 1.0 part, 20 min", "value": 1},
      {"measurement": "coloration, GARDNER scale", "setting": "[9]; 1.0 part, 30 min", "value": 1},
      {"measurement": "coloration, GARDNER scale", "setting": "[9]; 1.0 part, 50 min", "value": 4},
      {"measurement": "coloration, GARDNER scale", "setting": "[9]; 1.0 part, 60 min", "value": 8}
    ]}
  ]
}
